Results reported in patent US9765105B2, “Macrolide compound” (Pulike Biological Engineering, Inc., priority 2013, dated 2017).

Tests used:
Experiment in all cases: in vitro susceptibility, MIC by mini broth dilution
Type in all cases: cell-based
[1] = system: Staphylococcus aureus CVCC26003; conditions: strain CVCC26003
Summary of the method: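 S. aureus CVCC26003 was revived and subcultured twice, 20 h each at 35° C, on solid medium, then diluted 1:200 in CAMHB liquid medium. Compounds received an 11-step two-fold DMSO dilution in parallel duplicate rows. MIC was read by mini broth dilution per NCCLS guidance.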

[2] = system: Actinobacillus pleuropneumoniae CVCC262; conditions: strain CVCC262
Summary of the method: (§1)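 Read-out is the minimum inhibitory concentration, measured by mini broth dilution following the US NCCLS approved standard, with 11 two-fold compound dilutions in DMSO and a 1:200-diluted inoculum.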

Haemophilus parasuis = system: Haemophilus parasuis
Summary of the method: as §1

[3] = system: Pasteurella multocida CVCC399; conditions: strain CVCC399
Summary of the method: as §1

[4] = system: Streptococcus equines CVCC556; conditions: strain CVCC556
Summary of the method: as §1

| Compound | MIC values, Staphylococcus aureus CVCC26003 [1] [ug/mi] | MIC values, Actinobacillus pleuropneumoniae CVCC262 [2] [ug/mi] | MIC values, Haemophilus parasuis (Haemophilus parasuis) [ug/mi] | MIC values, Pasteurella multocida CVCC399 [3] [ug/mi] | MIC values, Streptococcus equines CVCC556 [4] [ug/mi] |
| --- | --- | --- | --- | --- | --- |
| CCCN1C[C@H](C)[C@@H](O)[C@](C)(O)[C@@H](CC)OC(=O)[C@H](C)[C@@H](O[C@H]2C[C@@](C)(OC)[C@](O)(CNc3cccnc3Cl)[C@H](C)O2)[C@H](C)[C@@H](O[C@@H]2O[C@H](C)C[C@H](N(C)C)[C@H]2O)[C@](C)(O)C[C@H]1C [syzx-218] | 2 | 4 | 4 | 8 | 0.25 |
| CCCN1C[C@H](C)[C@@H](O)[C@](C)(O)[C@@H](CC)OC(=O)[C@H](C)[C@@H](O[C@H]2C[C@@](C)(OC)[C@](O)(CNC(=O)c3ccccc3)[C@H](C)O2)[C@H](C)[C@@H](O[C@@H]2O[C@H](C)C[C@H](N(C)C)[C@H]2O)[C@](C)(O)C[C@H]1C [syzx-219] | 2 | 4 | 4 | 8 | 0.5 |
| CCCN1C[C@H](C)[C@@H](O)[C@](C)(O)[C@@H](CC)OC(=O)[C@H](C)[C@@H](O[C@H]2C[C@@](C)(OC)[C@](O)(CNc3nc(OC)cc(OC)n3)[C@H](C)O2)[C@H](C)[C@@H](O[C@@H]2O[C@H](C)C[C@H](N(C)C)[C@H]2O)[C@](C)(O)C[C@H]1C [syzx-222] | 4 | 2 | 2 | 8 | 0.25 |
| CCCN1C[C@H](C)[C@@H](O)[C@](C)(O)[C@@H](CC)OC(=O)[C@H](C)[C@@H](O[C@H]2C[C@@](C)(OC)[C@](O)(CNc3cccc(Br)c3)[C@H](C)O2)[C@H](C)[C@@H](O[C@@H]2O[C@H](C)C[C@H](N(C)C)[C@H]2O)[C@](C)(O)C[C@H]1C [syzx-223] | 0.25 | 0.25 | 0.25 | 0.5 | 0.25 |
| CCCN1C[C@H](C)[C@@H](O)[C@](C)(O)[C@@H](CC)OC(=O)[C@H](C)[C@@H](O[C@H]2C[C@@](C)(OC)[C@](O)(CNc3cc(F)ccc3[N+](=O)[O-])[C@H](C)O2)[C@H](C)[C@@H](O[C@@H]2O[C@H](C)C[C@H](N(C)C)[C@H]2O)[C@](C)(O)C[C@H]1C [syzx-226] | 2 | 4 | 4 | 8 | 0.25 |
| CCCN1C[C@H](C)[C@@H](O)[C@](C)(O)[C@@H](CC)OC(=O)[C@H](C)[C@@H](O[C@H]2C[C@@](C)(OC)[C@](O)(CNc3ccc(I)cc3)[C@H](C)O2)[C@H](C)[C@@H](O[C@@H]2O[C@H](C)C[C@H](N(C)C)[C@H]2O)[C@](C)(O)C[C@H]1C [syzx-227] | 2 | 4 | 4 | 8 | 0.5 |
| CCCN1C[C@H](C)[C@@H](O)[C@](C)(O)[C@@H](CC)OC(=O)[C@H](C)[C@@H](O[C@H]2C[C@@](C)(OC)[C@](O)(CNc3ccc([N+](=O)[O-])cc3[N+](=O)[O-])[C@H](C)O2)[C@H](C)[C@@H](O[C@@H]2O[C@H](C)C[C@H](N(C)C)[C@H]2O)[C@](C)(O)C[C@H]1C [syzx-228] | 2 | 1 | 1 | 2 | 0.25 |
| CCCN1C[C@H](C)[C@@H](O)[C@](C)(O)[C@@H](CC)OC(=O)[C@H](C)[C@@H](O[C@H]2C[C@@](C)(OC)[C@](O)(CNc3ccc(C)cc3C)[C@H](C)O2)[C@H](C)[C@@H](O[C@@H]2O[C@H](C)C[C@H](N(C)C)[C@H]2O)[C@](C)(O)C[C@H]1C [syzx-229] | 4 | 4 | 4 | 16 | 0.25 |
| CCCN1C[C@H](C)[C@@H](O)[C@](C)(O)[C@@H](CC)OC(=O)[C@H](C)[C@@H](O[C@H]2C[C@@](C)(OC)[C@](O)(CNc3cc(C(F)(F)F)cc(C(F)(F)F)c3)[C@H](C)O2)[C@H](C)[C@@H](O[C@@H]2O[C@H](C)C[C@H](N(C)C)[C@H]2O)[C@](C)(O)C[C@H]1C [syzx-230] | 4 | 2 | 2 | 8 | 0.25 |
| CCCN1C[C@H](C)[C@@H](O)[C@](C)(O)[C@@H](CC)OC(=O)[C@H](C)[C@@H](O[C@H]2C[C@@](C)(OC)[C@](O)(CNc3ccc(Cl)cc3Cl)[C@H](C)O2)[C@H](C)[C@@H](O[C@@H]2O[C@H](C)C[C@H](N(C)C)[C@H]2O)[C@](C)(O)C[C@H]1C [syzx-231] | 0.25 | 0.25 | 0.25 | 0.5 | 0.25 |
| CCCN1C[C@H](C)[C@@H](O)[C@](C)(O)[C@@H](CC)OC(=O)[C@H](C)[C@@H](O[C@H]2C[C@@](C)(OC)[C@](O)(CNc3cc(Cl)ccc3C)[C@H](C)O2)[C@H](C)[C@@H](O[C@@H]2O[C@H](C)C[C@H](N(C)C)[C@H]2O)[C@](C)(O)C[C@H]1C [syzx-234] | 2 | 4 | 4 | 8 | 0.25 |
| CCCN1C[C@H](C)[C@@H](O)[C@](C)(O)[C@@H](CC)OC(=O)[C@H](C)[C@@H](O[C@H]2C[C@@](C)(OC)[C@](O)(CNc3cc(Cl)nc(Cl)n3)[C@H](C)O2)[C@H](C)[C@@H](O[C@@H]2O[C@H](C)C[C@H](N(C)C)[C@H]2O)[C@](C)(O)C[C@H]1C [syzx-237] | 2 | 4 | 4 | 8 | 0.25 |
| CCCN1C[C@H](C)[C@@H](O)[C@](C)(O)[C@@H](CC)OC(=O)[C@H](C)[C@@H](O[C@H]2C[C@@](C)(OC)[C@](O)(Cn3ccnc3C)[C@H](C)O2)[C@H](C)[C@@H](O[C@@H]2O[C@H](C)C[C@H](N(C)C)[C@H]2O)[C@](C)(O)C[C@H]1C [syzx-238] | 1 | 1 | 1 | 4 | 0.25 |
| CCCN1C[C@H](C)[C@@H](O)[C@](C)(O)[C@@H](CC)OC(=O)[C@H](C)[C@@H](O[C@H]2C[C@@](C)(OC)[C@](O)(CN(C)CCO)[C@H](C)O2)[C@H](C)[C@@H](O[C@@H]2O[C@H](C)C[C@H](N(C)C)[C@H]2O)[C@](C)(O)C[C@H]1C [syzx-239] | 4 | 4 | 2 | 8 | 0.25 |
| (2R,3S,4R,5S,8R,10R,11R,12S,13S,14R)-13-[(2,6-dideoxy-3-C-methyl-3-O-methyl-4-C-[(thienylformyloxymethyl-2-amino)-methyl]-α-L-ribopyranosyl)oxy]-2-ethyl-3,4,10-trihydroxy-3,5,8,10,12,14-hexamethyl-11-[[3,4,6-trideoxy-3-(dimethylamino)-β-D-xylo-hexopyranosy]oxy]-1-oxa-7-azacyclopentadecan-15-one [syzx-77] | 0.25 | 16 | 0.25 | 0.5 | 0.5 |
